Consider three compounds from patent publication US20180078609A1, “METHODS AND COMPOSITIONS FOR TREATING ALZHEIMER'S DISEASE AND OTHER MEMORY-ASSOCIATED DISORDERS AND CONDITIONS” (Massachusetts Institute of Technology, priority 2016, published 2018).

One data set has as its system DG. The data set can be described thus: Kainic acid seizure-induced ChR2-eYFP labelling. As to conditions: 1 day off DOX; 15 mg kg−1 i.p. kainic acid. It is filed as in vivo, mouse. As to the method: For seizure experiments [Liu, X., et al. (2012) Nature 484, 381-385], mice were taken off DOX for 1 day and injected intraperitoneally with 15 mg kg^−1 kainic acid (KA). Mice were returned to DOX food 6 h after KA treatment and perfused the next day for immunohistochemistry procedures.
To characterize the expression pattern of ChR2-eYFP, DTR-eYFP, eYFP alone and oChIEF-tdTomato in control and AD mice, the number of eYFP^+/tdTomato^+ neurons were counted from 4-5 coronal slices per mouse (n=3-5 mice per group). Coronal slices centered on coordinates covered by optic fiber implants were taken for DG quantification and sagittal slices centered on injection coordinates were taken for MEC and LEC. Fluorescence images were acquired using a Zeiss Axiolmager.Z1/ApoTome microscope (×20). […] The number of eYFP^+/tdTomato^+ cells per section was calculated by applying a threshold above background fluorescence. Data were analyzed using Microsoft Excel with the Statplus plug-in. A similar approach was applied for quantifying amyloid-3 plaques, c-Fos^+ neurons and adult newborn (DCX^+) neurons. Total engram cell reactivation was calculated as ((c-Fos^+ eYFP^+)/(total DAPI^+))×100. Chance overlap was calculated as ((c-Fos^+/total DAPI^+)×(eYFP^+/total DAPI^+))×100. Percentage of adult newborn neurons expressing neuronal markers was calculated as ((NeuN^+ DCX^+)/(total DCX^+))×100. […]

Data set [1] has as its system DG engram cells. Put plainly: Dendritic spine density analysis of DG engram cells after in vivo optical LTP. To be noted: early AD mice treated with anisomycin after LTP induction. Further details: species or system mouse. Here is the method: Engram cells were labelled using c-Fos-tTA-driven synthesis of ChR2-eYFP or eYFP alone. The eYFP signal was amplified using immunohistochemistry procedures, after which fluorescence z-stacks were taken by confocal microscopy (Zeiss LSM700) using a×40 objective. Maximum intensity projections were generated using ZEN Black software (Zeiss). Four mice per experimental group were analyzed for dendritic spines. For each mouse, 30-40 dendritic fragments of 10-μm length were quantified (n=120-160 fragments per group). To measure spine density of DG engram cells with a focus on entorhinal cortical inputs, distal dendritic fragments in the middle-to-outer molecular layer (ML) were selected. For CA3 and CA1 engram cells, apical and basal dendritic fragments were selected. To compute spine density, the number of spines counted on each fragment was normalized by the cylindrical approximation of the surface of the specific fragment. Experiments were conducted blind to experimental group. Researcher 1 imaged dendritic fragments and randomized images, while researcher 2 performed manual spine counting.
(§1) One day after CFC training and engram labelling (DG plus PP terminals) in control and early AD groups, mice were placed in an open field arena (52×26 cm) after patch cords were fitted to the fiber implants. […]

The next data set has as its system early AD mice. The data set can be described thus: Contextual fear conditioning memory recall (freezing) after in vivo optical LTP. More on the design: species or system mouse.
Source text: Two distinct contexts were employed [Ryan, T. J., et al. (2015) Science 348, 1007-1013]. Context A was 29×25×22 cm chambers with grid floors, opaque triangular ceilings, red lighting, and scented with 1% acetic acid. Four mice were run simultaneously in four identical context A chambers. Context B consisted of four 30×25×33 cm chambers with perspex floors, transparent square ceilings, bright white lighting, and scented with 0.25% benzaldehyde. All mice were conditioned in context A (two 0.60 mA shocks of 2 s duration in 5 min), and tested (3 min) in contexts A and B 1 day later. […] Floors of chambers were cleaned with quatricide before and between runs. Mice were transported to and from the experimental room in their home cages using a wheeled cart. The cart and cages remained in an anteroom to the experimental rooms during all behavioral experiments. For engram labeling, mice were kept on regular food without DOX for 24 h before training. When training was complete, mice were switched back to food containing 40 mg kg^−1 DOX.
as §1

The test system of data set [2] is DG engram cells. The data set can be described thus: DTR-mediated ablation of engram cells, DTR-eYFP cell counts. It is filed as in vivo, mouse. To be noted: DTR-expressing DG engram cells after DT administration. Here is the method:
Mice were dispatched using 750-1,000 mg kg^−1 avertin and perfused transcardially with PBS, followed by 4% paraformaldehyde (PFA). Brains were extracted and incubated in 4% PFA at room temperature overnight. Brains were transferred to PBS and 50 μm coronal slices were prepared using a vibratome. For immunostaining [Ryan, T. J., et al. (2015) Science 348, 1007-1013], each slice was placed in PBS+0.2% Triton X-100 (PBS-T), with 5% normal goat serum for 1 h and then incubated with primary antibody at 4° C. for 24 h. Slices then underwent three wash steps for 10 min each in PBS-T, followed by 1 h incubation with secondary antibody. […]
To characterize the expression pattern of ChR2-eYFP, DTR-eYFP, eYFP alone and oChIEF-tdTomato in control and AD mice, the number of eYFP^+/tdTomato^+ neurons were counted from 4-5 coronal slices per mouse (n=3-5 mice per group). Coronal slices centered on coordinates covered by optic fiber implants were taken for DG quantification and sagittal slices centered on injection coordinates were taken for MEC and LEC. Fluorescence images were acquired using a Zeiss Axiolmager.Z1/ApoTome microscope (×20). […] The number of eYFP^+/tdTomato^+ cells per section was calculated by applying a threshold above background fluorescence. Data were analyzed using Microsoft Excel with the Statplus plug-in. […]

In another data set the test system is DG mossy cells. The data set can be described thus: Calretinin (CR+) staining of mossy cell axons after engram cell ablation. It is filed as in vivo, mouse. As to conditions: after DT administration. As to the method: Mice were dispatched using 750-1,000 mg kg^−1 avertin and perfused transcardially with PBS, followed by 4% paraformaldehyde (PFA). Brains were extracted and incubated in 4% PFA at room temperature overnight. Brains were transferred to PBS and 50 μm coronal slices were prepared using a vibratome. For immunostaining [Ryan, T. J., et al. (2015) Science 348, 1007-1013], each slice was placed in PBS+0.2% Triton X-100 (PBS-T), with 5% normal goat serum for 1 h and then incubated with primary antibody at 4° C. for 24 h. Slices then underwent three wash steps for 10 min each in PBS-T, followed by 1 h incubation with secondary antibody. After three more wash steps of 10 min each in PBS-T, slices were mounted on microscope slides. All analyses were performed blind to the experimental conditions. Antibodies used for staining were as follows: to stain for ChR2-eYFP, DTR-eYFP or eYFP alone, slices were incubated with primary chicken anti-GFP (1:1,000, Life Technologies) and visualized using anti-chicken Alexa-488 (1:200). For plaques, slices were stained using primary mouse anti-β-amyloid (1:1,000; Sigma-Aldrich) and secondary anti-mouse Alexa-488 (1:500). c-Fos was stained with rabbit anti-c-Fos (1:500, Calbiochem) and anti-rabbit Alexa-568 (1:300). Adult newborn neurons were stained with guinea pig anti-DCX (1:1,000; Millipore) and anti-guinea-pig Alexa-555 (1:500). […]

As for `C=C(C)[C@H]1CN[C@H](C(=O)O)[C@H]1CC(=O)O` [kainic acid], in the data set with DG, the “ChR2-eYFP labelling after seizures” value is reported as “efficient labelling throughout the DG”.

In the case of `COc1ccc(C[C@H]2NC[C@H](O)[C@H]2OC(C)=O)cc1` [anisomycin], in the data set on DG engram cells [1], the “Average dendritic spine density vs saline-treated AD mice” value is on record as “decreased”. In the data set with early AD mice (AD+100 Hz+Aniso, 2 days after LTP induction followed by drug administration, 75 mg kg−1 i.p. twice), the “Memory recall freezing vs saline-treated AD mice” value is recorded as “less freezing”.

Regarding diphtheria toxin, in the data set on early AD mice (AD rescue+DTR+DT, after optical LTP spine restoration), the “Memory recall freezing vs saline-treated mice” value is reported as “less freezing”. In addition, in the data set on DG engram cells [2], the “Ablation of DG engram cells” value is on record as “efficiently ablated DG engram cells”. Also, the “Effect on nearby DG mossy cells” value with DG mossy cells is “intact”.
